In ChEMBL document CHEMBL5608246, “Membrane-Targeting Amphiphilic Honokiol Derivatives Containing an Oxazole Moiety as Potential Antibacterials against Methicillin-Resistant Staphylococcus aureus” (J Med Chem, 2024):
Converted amounts (≈) assume the structure as drawn.

Legend:
[1] = test system: Staphylococcus aureus; assay: Antibacterial activity against methicillin resistant Staphylococcus aureus M11 incubated for 16 to 18 hrs by broth dilution method; format: functional; conditions: time 16-18 hrs
[2] = test system: Staphylococcus aureus; assay: Antibacterial activity against methicillin resistant Staphylococcus aureus M17 incubated for 16 to 18 hrs by broth dilution method; format: functional; conditions: time 16-18 hrs
[3] = Selectivity index, ratio of HC50 for sheep RBC to MIC for Staphylococcus aureus ATCC 29213; format: toxicity; conditions: sheep red blood cells, read-out: Selectivity Index
[4] = test system: Staphylococcus aureus; assay: Antibacterial activity against methicillin resistant Staphylococcus aureus M12 incubated for 16 to 18 hrs by broth dilution method; format: functional; conditions: time 16-18 hrs
[5] = test system: Staphylococcus aureus; assay: Antibacterial activity against methicillin resistant Staphylococcus aureus M20 incubated for 16 to 18 hrs by broth dilution method; format: functional; conditions: time 16-18 hrs
[6] = test system: Staphylococcus aureus; assay: Antibacterial activity against methicillin resistant Staphylococcus aureus M14 incubated for 16 to 18 hrs by broth dilution method; format: functional; conditions: time 16-18 hrs
[7] = test system: Staphylococcus aureus; assay: Antibacterial activity against methicillin resistant Staphylococcus aureus M21 incubated for 16 to 18 hrs by broth dilution method; format: functional; conditions: time 16-18 hrs
[8] = test system: Escherichia coli; assay: Antibacterial activity against Escherichia coli ATCC 25922 incubated for 16 to 18 hrs by broth dilution method; format: functional; conditions: time 16-18 hrs
[9] = Hemolytic activity in sheep RBC incubated for 1 hr; format: toxicity, cell-based, Ovis aries, Erythrocyte; conditions: sheep red blood cells (erythrocytes)
[10] = test system: Staphylococcus aureus; assay: Antibacterial activity against methicillin resistant Staphylococcus aureus M16 incubated for 16 to 18 hrs by broth dilution method; format: functional; conditions: time 16-18 hrs
[11] = test system: Staphylococcus aureus; assay: Antibacterial activity against methicillin resistant Staphylococcus aureus M13 incubated for 16 to 18 hrs by broth dilution method; format: functional; conditions: time 16-18 hrs
[12] = test system: Staphylococcus aureus; assay: Antibacterial activity against methicillin resistant Staphylococcus aureus M23 incubated for 16 to 18 hrs by broth dilution method; format: functional; conditions: time 16-18 hrs
[13] = test system: Staphylococcus aureus; assay: Antibacterial activity against Staphylococcus aureus ATCC 29213 incubated for 16 to 18 hrs by broth dilution method; format: functional; conditions: time 16-18 hrs
[14] = test system: Staphylococcus aureus; assay: Antibacterial activity against methicillin resistant Staphylococcus aureus M22 incubated for 16 to 18 hrs by broth dilution method; format: functional; conditions: time 16-18 hrs
[15] = test system: Staphylococcus aureus; assay: Antibacterial activity against methicillin resistant Staphylococcus aureus N315 incubated for 16 to 18 hrs by broth dilution method; format: functional; conditions: time 16-18 hrs

| Structure (SMILES) | MIC [1] [µg/mL] | MIC [2] [µg/mL] | selectivity ratio [3] | MIC [4] [µg/mL] | MIC [5] [µg/mL] | MIC [6] [µg/mL] | MIC [7] [µg/mL] | MIC [8] [µg/mL] | HC50 at 1 h [9] [µg/mL] | MIC [10] [µg/mL] | MIC [11] [µg/mL] | MIC [12] [µg/mL] | MIC [13] [µg/mL] | MIC [14] [µg/mL] | MIC [15] [µg/mL] |
| --- | --- | --- | --- | --- | --- | --- | --- | --- | --- | --- | --- | --- | --- | --- | --- |
| C=CCc1cc(-c2ccc(OCCC[N+](C)(C)CC(=O)NCCCC)c(CC=C)c2)c2oc(-c3cccc(Br)c3)nc2c1.[Br-] | 8 | 8 | > 10 | 8 | 8 | 8 | 8 | > 128 | > 320 | 8 | 8 | 8 | 32 | 8 | 64 |
| C=CCc1cc(-c2ccc(OCCC[N+](C)(C)CC(=O)NCCCC)c(CC=C)c2)c2oc(-c3ccc(F)cc3)nc2c1.[Br-] | 16 | 8 | > 10 | 16 | 8 | 8 | 8 | > 128 | > 320 | 8 | 8 | 8 | 32 | 8 | 16 |
| C=CCc1cc(-c2ccc(OCCC[N+](C)(C)CC(=O)NCCCC)c(CC=C)c2)c2oc(-c3ccc(OC)cc3)nc2c1.[Br-] | 2 | 4 | > 40 | 4 | 2 | 2 | 2 | > 128 | 320 | 2 | 4 | 2 | 8 | 2 | 4 |
| C=CCc1cc(-c2ccc(OCCC[N+](C)(C)CC(=O)NCCCC)c(CC=C)c2)c2oc(-c3cccc(Cl)c3Cl)nc2c1.[Br-] | 16 | 4 | 1.2 | 8 | 4 | 4 | 8 | 128 | 39.5 | 8 | 16 | 8 | 32 | 8 | 8 |
| C=CCc1cc(-c2ccc(OCCC[N+](C)(C)CC(=O)NCCCC)c(CC=C)c2)c2oc(-c3ccc(Cl)cc3Cl)nc2c1.[Br-] | 64 | 8 | 2.7 | 16 | 8 | 8 | 8 | > 128 | 85.9 | 8 | 16 | 8 | 32 | 16 | 32 |
| C=CCc1cc(-c2ccc(OCCC[N+](C)(C)CC(=O)NCCCC)c(CC=C)c2)c2oc(-c3cc(Br)ccc3F)nc2c1.[Br-] | 8 | 4 | > 5 | 8 | 4 | 4 | 4 | 128 | > 320 | 8 | 4 | 8 | 64 | 8 | 32 |
| C=CCc1cc(-c2ccc(OCCC[N+](C)(C)CC(=O)NCCCC)c(CC=C)c2)c2oc(-c3ccc(C(F)(F)F)cc3)nc2c1.[Br-] | 8 | 32 | 0.5 | 16 | 8 | 16 | 8 | 128 | 59.5 | 8 | 8 | 8 | 128 | 32 | 128 |
| C=CCc1cc(-c2ccc(OCCC[N+](C)(C)CC(=O)NCCCC)c(CC=C)c2)c2oc(-c3ccc(Br)cc3)nc2c1.[Br-] | 8 | 16 | > 5 | 16 | 8 | 8 | 8 | 128 | > 320 | 8 | 8 | 8 | 64 | 16 | 64 |
| C=CCc1cc(-c2ccc(OCCC[N+](C)(C)CC(=O)NCCCC)c(CC=C)c2)c2oc(-c3ccc(Cl)c(F)c3)nc2c1.[Br-] | 8 | 16 | 1.3 | 16 | 8 | 4 | 8 | 128 | 81 | 8 | 8 | 8 | 64 | 8 | 8 |
| C=CCc1cc(-c2ccc(OCCC[N+](C)(C)CC(=O)NCCCC)c(CC=C)c2)c2oc(-c3ccc(Br)cc3Br)nc2c1.[Br-] | 32 | 64 | 1.3 | 16 | 16 | 32 | 16 | > 128 | 170 | 16 | 16 | 32 | 128 | 32 | 64 |
| C=CCc1cc(-c2ccc(OCCC[N+](C)(C)CC(=O)NCCCC)c(CC=C)c2)c2oc(-c3ccccc3Cl)nc2c1.[Br-] | 128 | 128 | > 40 | 64 | 64 | 64 | 128 | 128 | > 640 | 32 | 32 | 32 | 16 | 32 | 64 |
| C=CCc1cc(-c2ccc(OCCC[N+](C)(C)CC(=O)NCCCC)c(CC=C)c2)c2oc(-c3cc(Br)cc(Br)c3)nc2c1.[Br-] | 128 | 128 | 1.6 | > 128 | > 128 | 128 | 64 | 128 | 205 | 128 | > 128 | 128 | 128 | 128 | 128 |
| C[C@@H](O)[C@H]1C(=O)N2C(C(=O)O)=C(S[C@@H]3CN[C@H](C(=O)N(C)C)C3)[C@H](C)[C@H]12 [MEROPENEM] |  |  |  |  |  |  |  | 0.063 (≈ 0.164 µM) |  |  |  |  |  |  |  |
| C=CCc1cc(-c2ccc(OCCC[N+](C)(C)CC(=O)NCCCC)c(CC=C)c2)c2oc(-c3ccc(Cl)cc3Br)nc2c1.[Br-] | 128 | > 128 |  | > 128 | > 128 | 128 | > 128 | > 128 | > 320 | 128 | > 128 | > 128 | > 128 | 128 | > 128 |
| C=CCc1cc(-c2ccc(OCCC[N+](C)(C)CC(=O)NCCCC)c(CC=C)c2)c2oc(-c3ccc(Cl)cc3F)nc2c1.[Br-] | > 128 | 128 |  | 128 | 128 | 64 | 128 | 128 | > 640 | 128 | > 128 | 128 | > 128 | 128 | > 128 |
